Experiments:
[1] = test system: NO-guanylyl cyclase pathway; experiment: Cyclic nucleotide (cGMP) assay in tracheal rings; assay type: cell-based, guinea pigs; settings: FIG. 2
Method: (§1) Male Hartley guinea pigs (500-600 g) were anesthetized by intraperitoneal injection of ketamine and xylazine (50 and 10 mg/kg, respectively). The heart and lungs were excised en bloc and tracheas were removed and placed in Krebs-Henseleit buffer composed of (mM): NaCl 118, KCl 5.4, NaH2PO4 1.01, NaHCO3 25, MgSO4 0.69, […], glucose 11.1, pH 7.4. Tracheas were then dissected free from surrounding fat and connective tissue and cut into 1-2-mm thick rings. The tracheal rings were then placed in buffer and continuously gassed with 95% O2 and 5% CO2.
Tracheal rings in Krebs-Heneseleit solution were exposed to a 5-100 μM of the test compound for 30-90 seconds. Reaction was terminated by the addition of ice-cold 10% trichloroacetic acid and rapidly frozen in ethanol-saturated dry ice. In the methylene blue experiment, rings were pre-exposed methylene blue, a guanylyl cyclase inhibitor, for 30 min. Tissues were then individually pulverized with a glass homogenizer and centrifuged at 8000×g for 5 min. The clear supernatant was extracted with water-saturated ether and assayed for cGMP using commercially available radioimmunoassay kits as described by the manufacturer (Amersham Biosciences, Piscataway, N.J.).

tracheal rings = experiment: Relaxation studies on pre-contracted tracheal rings; assay type: cell-based, guinea pigs; settings: FIG. 1; tracheal rings contracted with methacholine, histamine or leukotriene D4; compared with salbutamol and compound 2a
Method: The assays as described here are also described in, for example, U.S. Pat. No. 4,992,474 and Jansen et al.(1992) J. Pharmacol. Exptl. TherapeuticsI 261(1):154-160.
as §1
Tracheal rings were suspended on stainless steel hooks in 10 ml of oxygenated (95% O2, 5% CO2) Krebs-Henseleit buffer at 37° C. and connected to transducer (Experimetria Model) for recording changes in isometric force. The tracheal rings were equilibrated for 60 min under a load of 1 g and then primed twice by exposure to 100 μM methacholine. Tissues were contacted with methacholine, histamine, or leukotriene D4 at concentrations determined to approximately generate 50% of maximal tone, after which cumulative relaxation-response curves were constructed. […]

5-(2-tert-Butylamino-1-S-nitroso-ethyl)-1,1,3,3-tetramethyl-isoindolin-2-yloxyl [compound 2]
cGMP response of tracheal rings ([1]; 5-100 μM test compound for 30-90 seconds, radioimmunoassay, compared with control and salbutamol): elevates the production of cGMP | cGMP response of tracheal rings in the presence of methylene blue (MB) ([1]; rings pre-exposed to methylene blue, a guanylyl cyclase inhibitor, for 30 min): reduces the efficacy of compound 2 | relaxation response (relax. %) versus log of concentration (tracheal rings): more effective relaxant compound than either salbutamol or the non-nitrosolated precursor of compound 2, compound 2a
